The source of these data is patent publication US9885044B2, “Polynucleotides and methods for inhibiting cancer cells” (Chang Gung Memorial Hospital, Linkou, priority 2015, dated 2018).

Series [1] concerns p53-deficient and P53-proficient cancer cells. Description: Proliferation rate of cancer cells after shPuf-A transduction. The format is cell-based. The following applies: p53-deficient and P53-proficient cancer cells (FIG. 7F). An excerpt:
(§1) FIG. 7A is an assembly of images showing the effect of control shRNA, shPuf-A-1 and Puf-A-2 on Puf-A expression and cleaved form of PARP1, by transducing control shRNA, shPuf-A-1 and Puf-A-2 into the following p53-deficient and p53-proficient cell lines: A549, H460, U87, HCT116, H1299, CL1-5, MB231, LN229 and T98. FIG. 7B is a series of flow cytometry (FACS) images, illustrating the cell-cycle of Puf-A depleted (shPuf-A transduced) p53 proficient (p53 wild type) and p53 deficient (p53 defective) cancer cell lines. FIG. 7C is a series of Western blot images showing the effect shPuf-A-1 transduction on the expression of Puf-A, LC3 (marker for autophagosome), LAMP2 (marker for lysosome) and p62 (an autophagy substrate) in p53^+/+HCT116, p53^−/−HCT116, and p53^−/−H1299 cancer cell lines. FIG. 7D is a Western Blot image illustrating the effect of suppressing p53 and Puf-A in p53-proficient cells (H460). FIG. 7E is a series of immunofluorescence images illustrating the effect of silencing Puf-A, by shPuf-A-1 transduction, on LC3 (green), Lamp1 (red) and DAPI (blue) expression in p53 proficient (p53^+/+) HCT116, P53 deficient (p53^−/−) HCT116 and H1299 cancer cells. FIG. 7F is a series of graphs illustrating reduced proliferation rate of p53^−/− HCT116 and H1299 cells after shPuf-A-1 and shPuf-A-2 transduction compared to control shRNA transduction. […]

The subject of series [2] is Puf-A RNA. Description: Puf-A knockdown by shRNA lentivirus vectors, RT-PCR and Q-PCR. The format is cell-based, human. To be noted: for knockdown efficiency on Puf-A expression compared to control shRNA: HCT116 and H1299 cells, Q-PCR (FIG. 6D); for expression level of Puf-A RNA compared to control shRNA: p53-proficient (p53+/+ HCT116) and p53-deficient (p53−/− HCT116, p53−/− H1299) cells, GAPDH internal control. The protocol:
FIG. 6A show the nucleotide sequence of human Puf-A gene (SEQ ID NO:1). […] FIG. 6C and FIG. 6D illustrate the Puf-A knockdown efficiency of control shRNA, shPuf-A-1 and shPuf-A-2 in colorectal cancer cells (HCT116) and lung cancer cells (H1299), determined by RT-PCR and Q-PCR analyses.
The effect of the shRNAs constructs in FIG. 6B on Puf-A expression was evaluated using p53-proficient (p53^+/+ HCT116) and p53-deficient (p53^−/− HCT116 and p53^−/− H1299). The cells were transduced with control shRNA, shPuf-A-1 and shPuf-A-2 lentivirus vectors and Puf-A expression was determined by […] and Q-PCR. […] The knockdown efficiencies of shPuf-A-1 and shPuf-A-2 on Puf-A expression were approximately 90% and 75%, respectively, compare to the control shRNA (FIG. 6D).

Series [3] deals with LC3-II, LAMP2, p62. Description: Autophagy markers after shPuf-A transduction (Western blot). The following applies: p53-proficient cells (p53+/+ HCT116). Type of series: cell-based.
Text: as §1
(In western blotting, separated proteins are transferred to a membrane and probed.)

The subject of series [4] is LC3-II, LAMP1. Description: Immunofluorescence staining of LC3-II and LAMP1 after shPuf-A-1 transduction. Type of series: cell-based. An excerpt:
FIG. 7A is an assembly of images showing the effect of control shRNA, shPuf-A-1 and Puf-A-2 on Puf-A expression and cleaved form of PARP1, by transducing control shRNA, shPuf-A-1 and Puf-A-2 into the following p53-deficient and p53-proficient cell lines: A549, H460, U87, HCT116, H1299, CL1-5, MB231, LN229 and T98. FIG. 7B is a series of flow cytometry (FACS) images, illustrating the cell-cycle of Puf-A depleted (shPuf-A transduced) p53 proficient (p53 wild type) and p53 deficient (p53 defective) cancer cell lines. FIG. 7C is a series of Western blot images showing the effect shPuf-A-1 transduction on the expression of Puf-A, LC3 (marker for autophagosome), LAMP2 (marker for lysosome) and p62 (an autophagy substrate) in p53^+/+HCT116, p53^−/−HCT116, and p53^−/−H1299 cancer cell lines. FIG. 7D is a Western Blot image illustrating the effect of suppressing p53 and Puf-A in p53-proficient cells (H460). FIG. 7E is a series of immunofluorescence images illustrating the effect of silencing Puf-A, by shPuf-A-1 transduction, on LC3 (green), Lamp1 (red) and DAPI (blue) expression in p53 proficient (p53^+/+) HCT116, P53 deficient (p53^−/−) HCT116 and H1299 cancer cells. FIG. 7F is a series of graphs illustrating reduced proliferation rate of p53^−/− HCT116 and H1299 cells after shPuf-A-1 and shPuf-A-2 transduction compared to control shRNA transduction.

Series [5] concerns p53 and p21. Description: p53 and p21 protein/RNA expression in p53 proficient cancer cells after Puf-A suppression. The format is cell-based. To be noted: A549, H460 or HCT116 p53 proficient cells. An excerpt:
FIG. 8A is a series of Western blot, RT-PCR and Q-PCR images, illustrating shPuf-A1 and shPuf-A2 transduction increases the expression of p53 and p21 and reduces transcripts of PUF-A in the following p53-proficient (p53^+/+) cancer cell lines: A549, H460, and HCT116. FIG. 8B is a series of immunostaining images illustrating the expression of p53 (red) and DAPI (blue, internal control) in p53-proficient (p53^+/+) cancer cell lines A549, H460 and HCT116 cells and P53 deficient (p53^−/−) HCT116 cancer cells after control shRNA and shPuf-A-1 transduction. FIG. 8C is a series of bar graphs illustrating the FACS analyzed cell-cycles of Puf-A depleted cancer cells, A549, H460 and HCT116, with different p53 genotypes.
The effect of Puf-A suppression on the expression level of p53 and p21 protein/RNA in p53 proficient cancer cells was examined, by infecting A549, H460 or HCT116 cancer cells with shPuf-A-1, shPuf-A-2 or control shRNA viral vectors. […] Cell-cycle progression of the same cancer cell lines was analyzed by FACS.

Series [6] deals with Puf-A proteins. Description: Puf-A protein expression after shPuf-A transduction of cancer cell lines (Western blot). The format is cell-based. To be noted: A549, H460, H1299, CL1-5, HCT116, MB231, U87, LN229, T98 cells.
Text: as §1, with “cells.” for “cells. FIG. 7F is a series of graphs illustrating reduced proliferation rate of p53^−/− HCT116 and H1299 cells after shPuf-A-1 and shPuf-A-2 transduction compared to control shRNA transduction.”
The biological function of Puf-A on cancer cells was assessed, using lung cancer cells (A549, H460, H1299 and CL1-5); colorectal cancer cells (HCT116); breast cancer cells (MB231) and glioblastoma cells (U87, LN229 and T98).

Series [7] has as its system adenoma-bearing LSL-Kras^G12D/p53^flox mice. Description: In vivo evaluation of Puf-A suppression in tumourigenesis (intranasal lentiviral shRNA). The following applies: lentiviral vector intranasally twice a week for two weeks; sacrificed 6 weeks after Kras^G12D activation and p53 deletion. From the text:
FIG. 5A schematically illustrates the in vivo study design of Puf-A shRNA delivery to knock down Puf-A. FIG. 5B is an assembly of microscopic images illustrating the number of tumor foci in mice administered with of control shRNA or Puf-A shRNA. FIG. 5C is a series of bar graphs illustrating the counted numbers of tumor foci (>250 μm) in mice with adenocarcinoma (left bar graph) and adenoma (right bar graph), after the administration of control or Puf-A-2 shRNA.
An in vivo evaluation of Puf-A suppression in tumourigenesis was performed using LSL-Kras^G12D1p53^flox mice.
FIG. 5A schematically illustrates the study design. LSL-Kras^G12D/p53^flox mice developed adenoma after 2 weeks of Kras^G12D activation and p53 deletion. Lentiviral vector, expressing shPuf-A-2 (a Puf-A shRNA) or control shRNA, was intranasally delivered to adenoma-bearing LSL-Kras^G12D/p53^flox mice twice a week for two weeks. The mice were sacrificed 6 weeks after Kras^G12D activation and p53 deletion.

On to “shPuf-A-1: novel short hairpin RNA targeting Puf-A, encoded by SEQ ID NO:2, delivered by lentivirus vector (DNA CCGGGCCTAGCATAGTAAATGACAACTCGAGTTGTCATTTACTATGCTAGGCTTTTTTG)”, for which, in series [1], the “proliferation rate compared to control shRNA virus” value is “reduced”. Besides, in series [2], the “knockdown efficiency on Puf-A expression compared to control shRNA” value was “approximately 90%” and the “expression level of Puf-A RNA compared to control shRNA” value is recorded as “significantly reduced”. Besides, in series [3], the “level of LC3-II expression” value is on record as “slight increase”. The “expression and co-localization of LC3-II and LAMP1” value in series [4] (p53-deficient cancer cells) was “increase expression and co-localization”. The “LAMP1 around the nuclei” value in series [4] (p53-proficient cancer cells) was “slight increase”. In addition, in series [5], the “expression level of p21 protein or RNA compared to control shRNA” value is listed as “significantly increased” and the “expression level of p53 protein or RNA compared to control shRNA” value is “significantly increased”. Further, the “expression level of Puf-A proteins compared to control shRNA” value in series [6] is “significantly reduced”.
For the substance “shPuf-A-2: novel short hairpin RNA targeting Puf-A, encoded by SEQ ID NO:3, delivered by lentivirus vector (DNA CCGGCGTGTGATCCAGTGTTACATTCTCGAGAATGTAACACTGGATCACACGTTTTTG)”, the “proliferation rate compared to control shRNA virus” value in series [1] is given as “reduced”. In series [2], the “knockdown efficiency on Puf-A expression compared to control shRNA” value is listed as around 75% and the “expression level of Puf-A RNA compared to control shRNA” value is “significantly reduced”. In series [7], the “reduction of number of adenocarcinoma focus (>250 μm) vs control shRNA vector” value is on record as 15.4 fold and the “reduction of number of adenoma focus (>250 μm) vs control shRNA vector” value is recorded as 2.6 fold. The “level of LC3-II expression” value in series [3] is listed as “slight increase”. For the same substance, in series [5], the “expression level of p21 protein or RNA compared to control shRNA” value is on record as “significantly increased” and the “expression level of p53 protein or RNA compared to control shRNA” value is given as “significantly increased”. In addition, in series [6], the “expression level of Puf-A proteins compared to control shRNA” value is “significantly reduced”.
